Drawing on patent publication US20050107423A1, “Quinolone antibacterial agents” (priority 2003, published 2005), this text covers MIC for 17 compounds.

What all share (assay): Antibacterial assay, microtitration MIC (Test A)
Common to all, as to format: cell-based

Assay [1] has as its system S pyogenes C203. To be noted: Gram Positive Bacteria; strain C203; read-out: Minimum Inhibitory Concentrations S pyogenes C203. Put shortly: (§1)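 Each strain is exposed to the compounds using a standard microdilution MIC method.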
For assay [2], the system named is S. pneumo SV-1. To be noted: Gram Positive Bacteria; strain SV-1; read-out: Minimum Inhibitory Concentrations S. pneumo SV-1. Put shortly:
as §1

Assay [3] relates to E. faecalis MGH-2. To be noted: Enterococcus faecalis, MGH2, Gram Positive Bacteria; strain MGH-2; read-out: Minimum Inhibitory Concentrations E. faecalis MGH-2. The essentials: as §1
The test system of assay [4] is S. aureus UC-76. To be noted: Staphylococcus aureus, UC76, Gram Positive Bacteria; strain UC-76; read-out: Minimum Inhibitory Concentrations S. aureus UC-76. Put shortly: as §1

Converted amounts (≈) assume the structure as drawn.

Consider `Nc1nc(-n2cc(C(=O)O)c(=O)c3cc(F)c(N4C[C@@H](O)[C@@H](O)C4)nc32)c(F)cc1F` [drawing 399], for which the MIC in assay [1] worked out at 0.25 µg/mL (≈ 0.572 µM); in assay [2], 0.5 µg/mL (≈ 1.14 µM); in assay [3] it was 0.5 µg/mL (≈ 1.14 µM); in assay [4], 125 ng/mL (≈ 0.286 µM).
With `COc1c(N2C[C@@H](CO)[C@@H](CO)C2)c(F)c(N)c2c(=O)c(C(=O)O)cn(C3CC3)c12` [drawing 400], the MIC in assay [1] was 0.25 µg/mL (≈ 0.593 µM); in assay [2], 0.125 µg/mL (≈ 0.297 µM); in assay [3] it was 0.25 µg/mL (≈ 0.593 µM); in assay [4] it was 8 ng/mL (≈ 0.019 µM).
In the case of `O=C(O)c1cn(C2CC2)c2c(Cl)c(N3C[C@@H](CO)[C@@H](CO)C3)c(F)cc2c1=O` [drawing 401], the MIC was 0.125 µg/mL (≈ 0.304 µM) in assay [1], 0.125 µg/mL (≈ 0.304 µM) in assay [2], 0.125 µg/mL (≈ 0.304 µM) in assay [3] and 4 ng/mL (≈ 0.00974 µM) in assay [4].
As for `Nc1nc(-n2cc(C(=O)O)c(=O)c3cc(F)c(N4C[C@@H](CO)[C@@H](CO)C4)c(Cl)c32)c(F)cc1F` [drawing 402], the MIC in assay [1] was 0.5 µg/mL (≈ 1 µM); in assay [2] it was 0.5 µg/mL (≈ 1 µM); in assay [3] it was 2 µg/mL (≈ 4.01 µM); in assay [4], 125 ng/mL (≈ 0.251 µM).
Take `COc1c(N2C[C@@H](CO)[C@@H](CO)C2)c(F)cc2c(=O)c(C(=O)O)cn(C3CC3)c12` [drawing 403]: the MIC in assay [1] is 0.06 µg/mL (≈ 0.148 µM); in assay [2], 0.06 µg/mL (≈ 0.148 µM); in assay [3] it was 0.06 µg/mL (≈ 0.148 µM); in assay [4] it was 2 ng/mL (≈ 0.00492 µM).
As for `COc1c(N2C[C@H](CO)[C@@H](CO)C2)c(F)cc2c(=O)c(C(=O)O)cn(C3CC3)c12` [drawing 404], the MIC in assay [1] was 0.125 µg/mL (≈ 0.308 µM); in assay [2], 0.125 µg/mL (≈ 0.308 µM); in assay [3] it was 0.125 µg/mL (≈ 0.308 µM); in assay [4] it was 8 ng/mL (≈ 0.0197 µM).
Turning to `Cc1c(N2C[C@@H](CO)[C@@H](CO)C2)c(F)cc2c(=O)c(C(=O)O)cn(C3CC3)c12` [drawing 405], the MIC in assay [1] was determined as 0.06 µg/mL (≈ 0.154 µM); in assay [2] it was 0.06 µg/mL (≈ 0.154 µM); in assay [3] it was 0.06 µg/mL (≈ 0.154 µM); in assay [4], 4 ng/mL (≈ 0.0102 µM).
For the compound `COC[C@H]1CN(c2c(F)cc3c(=O)c(C(=O)O)cn(C4CC4)c3c2C)C[C@H]1CO` [drawing 406], the MIC turned out to be 0.06 µg/mL (≈ 0.148 µM) in assay [1], 0.03 µg/mL (≈ 0.0742 µM) in assay [2], 0.125 µg/mL (≈ 0.309 µM) in assay [3] and 4 ng/mL (≈ 0.00989 µM) in assay [4].
`COC[C@@H]1CN(c2c(F)cc3c(=O)c(C(=O)O)cn(C4CC4)c3c2C)C[C@@H]1COC` [drawing 407]: the MIC in assay [1] was 0.25 µg/mL (≈ 0.597 µM); in assay [2] it was 0.25 µg/mL (≈ 0.597 µM); in assay [3], 0.5 µg/mL (≈ 1.19 µM); in assay [4], 30 ng/mL (≈ 0.0717 µM).
As to `COC[C@@H]1CN(c2c(F)cc3c(=O)c(C(=O)O)cn(C4CC4)c3c2C)C[C@@H]1CO` [drawing 408], the MIC in assay [1] amounted to 0.06 µg/mL (≈ 0.148 µM); in assay [2], 0.03 µg/mL (≈ 0.0742 µM); in assay [3], 0.06 µg/mL (≈ 0.148 µM); in assay [4], 4 ng/mL (≈ 0.00989 µM).
For `CCOC[C@@H]1CN(c2c(F)cc3c(=O)c(C(=O)O)cn(C4CC4)c3c2C)C[C@@H]1CO` [drawing 409], the MIC in assay [1] is 0.125 µg/mL (≈ 0.299 µM); in assay [2], 0.06 µg/mL (≈ 0.143 µM); in assay [3], 0.125 µg/mL (≈ 0.299 µM); in assay [4] it was 4 ng/mL (≈ 0.00956 µM).
For `CCCOC[C@@H]1CN(c2c(F)cc3c(=O)c(C(=O)O)cn(C4CC4)c3c2C)C[C@@H]1CO` [drawing 410], the MIC turned out to be 0.125 µg/mL (≈ 0.289 µM) in assay [1], 0.06 µg/mL (≈ 0.139 µM) in assay [2], 0.125 µg/mL (≈ 0.289 µM) in assay [3] and 4 ng/mL (≈ 0.00925 µM) in assay [4].
Consider `CC(=O)OC[C@@H]1CN(c2c(F)cc3c(=O)c(C(=O)O)cn(C4CC4)c3c2C)C[C@@H]1COC(C)=O` [drawing 411], for which the MIC in assay [1] was 0.125 µg/mL (≈ 0.263 µM); in assay [2] it was 0.06 µg/mL (≈ 0.126 µM); in assay [3], 0.125 µg/mL (≈ 0.263 µM); in assay [4], 15 ng/mL (≈ 0.0316 µM).
As for `CCC(=O)OC[C@@H]1CN(c2c(F)cc3c(=O)c(C(=O)O)cn(C4CC4)c3c2C)C[C@@H]1COC(=O)CC` [drawing 412], the MIC was 0.125 µg/mL (≈ 0.249 µM) in assay [1], 0.06 µg/mL (≈ 0.119 µM) in assay [2], 0.5 µg/mL (≈ 0.995 µM) in assay [3] and 30 ng/mL (≈ 0.0597 µM) in assay [4].
For `Cc1c(N2C[C@@H](COC(=O)C(C)C)[C@@H](COC(=O)C(C)C)C2)c(F)cc2c(=O)c(C(=O)O)cn(C3CC3)c12` [drawing 413], the MIC in assay [1] worked out at 0.25 µg/mL (≈ 0.471 µM); in assay [2], 0.125 µg/mL (≈ 0.236 µM); in assay [3], 4 µg/mL (≈ 7.54 µM); in assay [4], 1000 ng/mL (≈ 1.88 µM).
Take `Cc1c(N2C[C@@H](CCO)[C@@H](CCO)C2)c(F)cc2c(=O)c(C(=O)O)cn(C3CC3)c12` [drawing 414]: the MIC in assay [1] turned out to be 0.03 µg/mL (≈ 0.0717 µM); in assay [2], 0.03 µg/mL (≈ 0.0717 µM); in assay [3] it was 0.06 µg/mL (≈ 0.143 µM); in assay [4], 2 ng/mL (≈ 0.00478 µM).
Turning to `COc1c(N2C[C@@H](CCO)[C@@H](CCO)C2)c(F)cc2c(=O)c(C(=O)O)cn(C3CC3)c12` [drawing 415], the MIC turned out to be 0.06 µg/mL (≈ 0.138 µM) in assay [1], 0.06 µg/mL (≈ 0.138 µM) in assay [2], 0.125 µg/mL (≈ 0.288 µM) in assay [3] and 4 ng/mL (≈ 0.00921 µM) in assay [4].
